# Experimental data published in US20220195384A1, “COMPOSITION FOR PROMOTING PRODUCTION OF STEM CELL-DERIVED EXOSOMES AND INCREASING STEMNESS” (BREXOGEN INC., priority 2019, published 2022).
# Where no end group is shown, it is not given here.
# Assays:
# Format in all cases: cell-based
# [1] = system: primary umbilical cord-derived mesenchymal stem cells; test: Content of exosomal protein (Bradford analysis, 595 nm); conditions: for Exosomal protein, yield per 10^6 cells: then 72 h exosome-free FBS medium
# Experimental: (§1) In a culture medium [high glucose DMEM (Gibco, Cat no. 11995-065); 10% fetal bovine serum (HyClone), 1% MEM non-essential amino acids solution (100×) (Gibco, Cat no. 11140-050)] containing 20 nM of exendin-4, primary umbilical cord-derived mesenchymal stem cells (ATCC No. PCS-500-010; Lot No. 63822428) were cultured for one week.
# (§2) After completion of culturing, the mesenchymal stem cells pretreated with exendin-4 were washed and additionally cultured for 72 hours in a culture medium supplemented with 10% fetal bovine serum (FBS) free of exosomes. The reason of employing exosome-free FBS was to prevent FBS-derived exosomes other than those secreted from the cells from being incorporated because generally used FBS contained a large amount of exosomes derived from bovine serum.
# (§3) After 72 hours of culturing, the culture medium in which the pretreated mesenchymal stem cells were cultured was taken and centrifuged at 300×g for 10 min to remove residual cells and cell debris. The supernatant was filtered through a 0.22 μm filter, followed by centrifugation at 10,000×g and 4° C. for 70 min in a high-speed centrifuge. The supernatant thus obtained was subjected again to ultracentrifugation at 100,000×g and 4° C. for 90 min. The exosomes obtained as a pellet were diluted in PBS (phosphate buffered saline) before use in the following experiments.
# as §1, with “10” for “20”, “PMA,” for “exendin-4,”
# as §2, with “PMA” for “exendin-4”
# as §1, with “10 ng/mL interferon-γ,” for “20 nM of exendin-4,”
# as §2, with “interferon-γ” for “exendin-4”
# as §1, with “10 μM” for “20 nM”, “tetrandrine,” for “exendin-4,”
# as §2, with “tetrandrine” for “exendin-4”, “serum. […]” for “serum.”
# [2] = system: primary umbilical cord-derived mesenchymal stem cells; test: Stem cell stemness: colony formation (CFU-F, crystal violet) after pretreatment; conditions: for colonies formed (each 50 or more cells): 1,000 cells/dish, 21 days; for CFU-F increase: vs non-treated
# Experimental: as §1
# as §1, with “10” for “20”, “PMA,” for “exendin-4,”
# as §1, with “10 ng/mL interferon-γ,” for “20 nM of exendin-4,”
# as §1, with “10 μM” for “20 nM”, “tetrandrine,” for “exendin-4,”
# as §1, with “10 μg/mL hyaluronic acid,” for “20 nM of exendin-4,”
# as §1, with “30” for “20”, “substance P,” for “exendin-4,”
# as §1, with “10” for “20”, “resveratrol,” for “exendin-4,”
# as §1, with “10 μM” for “20 nM”, “lanifibranor,” for “exendin-4,”
# Mesenchymal stem cells and the exendin-4-pretreated mesenchymal stem cells of the Example were each seeded at a density of 1,000 cells/dish into 100-mm cell culture dishes containing […] of a culture medium [high glucose DMEM (Gibco, Cat no. 11995-065), 10% fetal bovine serum (HyClone), 1% MEM non-essential amino acids solution (100×) (Gibco, Cat no. 11140-050)] per dish and cultured for 21 days. The cell-attached dishes were washed twice with PBS, followed by fixation with 95% methanol at room temperature for about 2 min. The fixed cells were washed three times with PBS and stained with 0.5% crystal violet [(sigma, C-3886, USA) […], methanol 100 ml] for 5 min. After water washing and drying at room temperature, colonies, each composed of 50 or more cells, were counted for comparison.
# Mesenchymal stem cells and the PMA-pretreated mesenchymal stem cells of the Example were each seeded at a density of 1,000 cells/dish into 100-mm cell culture dishes containing […] of a culture medium [high glucose DMEM (Gibco, Cat no. 11995-065), 10% fetal bovine serum (HyClone), 1% MEM non-essential amino acids solution (100×) (Gibco, Cat no. 11140-050)] per dish and cultured for 21 days. The cell-attached dishes were washed twice with PBS, followed by fixation with 95% methanol at room temperature for about 2 min. […]
# [3] = system: primary umbilical cord-derived mesenchymal stem cells; test: Number of exosomes by nanoparticle tracking assay (NanoSight NS300); conditions: for No. of exosome particles, yield per 10^6 cells: then 72 h exosome-free FBS medium
# Experimental: as §1, §2, §3
# as §1, with “10” for “20”, “PMA,” for “exendin-4,”
# as §2, with “PMA” for “exendin-4”
# as §1, with “10 ng/mL interferon-γ,” for “20 nM of exendin-4,”
# as §2, with “interferon-γ” for “exendin-4”
# as §1, with “10 μM” for “20 nM”, “tetrandrine,” for “exendin-4,”
# as §2, with “tetrandrine” for “exendin-4”, “serum. […]” for “serum.”
# [4] = system: primary umbilical cord-derived mesenchymal stem cells; test: Content of exosomal RNA (NanoDrop); conditions: for Exosomal RNA, yield per 10^6 cells: then 72 h exosome-free FBS medium
# Experimental: as §1, §2, §3
# as §1, with “10” for “20”, “PMA,” for “exendin-4,”
# as §2, with “PMA” for “exendin-4”
# as §1, with “10 ng/mL interferon-γ,” for “20 nM of exendin-4,”
# as §2, with “interferon-γ” for “exendin-4”
# as §1, with “10 μM” for “20 nM”, “tetrandrine,” for “exendin-4,”
# as §2, with “tetrandrine” for “exendin-4”, “serum. […]” for “serum.”
# [5] = system: primary umbilical cord-derived mesenchymal stem cells; test: Stem cell proliferation (CCK, absorbance 450 nm) after pretreatment; conditions: 24 h culture, CCK 4 h
# Experimental: as §1
# as §1, with “10” for “20”, “PMA,” for “exendin-4,”
# as §1, with “10 ng/mL interferon-γ,” for “20 nM of exendin-4,”
# as §1, with “10 μM” for “20 nM”, “tetrandrine,” for “exendin-4,”
# as §1, with “10 μg/mL hyaluronic acid,” for “20 nM of exendin-4,”
# as §1, with “30” for “20”, “substance P,” for “exendin-4,”
# as §1, with “10” for “20”, “resveratrol,” for “exendin-4,”
# as §1, with “10 μM” for “20 nM”, “lanifibranor,” for “exendin-4,”
# (§4) Mesenchymal stem cells and the exendin-4-pretreated mesenchymal stem cells of the Example were each seeded at a density of 3,000 cells/well into 96-well plates containing 100 μL of a culture medium [high glucose DMEM (Gibco, Cat no. 11995-065), 10% fetal bovine serum (HyClone), 1% MEM non-essential amino acids solution (100×) (Gibco, Cat no. 11140-050)] per well and cultured for 24 hours in a CO2 incubator. Then, CCK solution (10 μL/well) was added, and incubation was continued for 4 hours in the CO2 incubator, followed by reading absorbance at a wavelength of 450 nm (420-480 nm) to determine proliferation.
# as §4, with “PMA-pretreated” for “exendin-4-pretreated”, “proliferation. […]” for “proliferation.”
# [6] = 20 nM exendin-4 pretreatment one week
# [7] = 30 nM substance P pretreatment one week
Substance,"fold greater exosomal proteins than non-treated mesenchymal stem cells [1, 6]","Exosomal protein, yield per 10^6 cells ([1]; 20 nM exendin-4 pretreatment one week, non-treated 2.00) [μg]","colonies formed (each 50 or more cells) ([2]; 20 nM exendin-4 pretreatment one week, non-treated 28.6) [colonies]","CFU-F increase [2, 6]","fold more exosomes than non-treated mesenchymal stem cells [3, 6]","No. of exosome particles, yield per 10^6 cells ([3]; 20 nM exendin-4 pretreatment one week, non-treated 2.30)","fold greater exosomal RNA than non-treated mesenchymal stem cells [4, 6]","Exosomal RNA, yield per 10^6 cells ([4]; 20 nM exendin-4 pretreatment one week, non-treated 31.00) [ng]","increase in proliferation relative to non-treated mesenchymal stem cells [5, 6]","proliferation ratio relative to non-treated mesenchymal stem cells (1) [5, 6]","fold greater exosomal proteins than non-treated mesenchymal stem cells [1, 7]","Exosomal protein, yield per 10^6 cells ([1]; 30 nM substance P pretreatment one week, non-treated 2.0) [ug]","colonies formed (each 50 or more cells) ([2]; 30 nM substance P pretreatment one week, non-treated 28.7) [colonies]","CFU-F increase [2, 7]","fold more exosomes than non-treated mesenchymal stem cells [3, 7]","No. of exosome particles, yield per 10^6 cells ([3]; 30 nM substance P pretreatment one week, non-treated 2.3)","fold greater exosomal RNA than non-treated mesenchymal stem cells [4, 7]","Exosomal RNA, yield per 10^6 cells ([4]; 30 nM substance P pretreatment one week, non-treated 31.0) [ng]","increase in proliferation relative to non-treated mesenchymal stem cells [5, 7]","proliferation ratio relative to non-treated mesenchymal stem cells (1) [5, 7]"
exendin-4,about 5.4 fold,10.69,185,about 647%,about 5.85 fold,13.45 10^9,about 5.6 fold,174.34,about 340%,3.4,–,–,–,–,–,–,–,–,–,–
"substance P (RPKPQQFFGLM; not fully specified; ends and bridges not checked; UniProt P20366 58-68, looked up) [undecapeptide of the tachykinin neuropeptide family acting on NK1 receptor; SubsP MSC-Exo = exosomes of treated mesenchymal stem cells]",–,–,–,–,–,–,–,–,–,–,about 5.2 fold,10.37,116,about 404%,about 4.3 fold,9.93 10^9,about 4.9 fold,150.84,about 290%,2.9
